The record followed here is patent US20090005375A1, “ACETYL COENZYME A CARBOXYLASE INHIBITORS” (priority 2007, published 2009).

The structures appear in SMILES notation.

For one experiment, the target named is T1, Human ACC2 (Homo sapiens, UniProt O00763).
T1 construct: made in house; host or cells: SF-9 insect cells (baculovirus, pFAST-BacHTa)
In words: In vitro enzymatic ACC activity assay (malachite green), ACC2. In kind it is biochemical. To be noted: recombinant His-tagged enzyme, absorbance at 620 nm. Here is the method:
(§1) Provided in Example A is an in vitro enzymatic ACC activity assay for activity against ACC. The binding affinity of the test compound to ACC1 or ACC2 is determined by the changes in absorbance (at 620 nm); […]. It should be noted that a variety of other expression systems and hosts are also suitable for the expression of ACC, as would be readily appreciated by one of skill in the art.
Human ACC2 cDNA except coding region for mitochondria localization sequence was amplified from human skeletal muscle cDNA by polymerase chain reaction using primers; 5′[…]3′ (SEQ ID NO: 3) and 5′[…]3′ (SEQ ID NO: 4). The amplified DNA fragment was digested by SalI and AflII, and cloned into pFAST-BacHTa (Invitrogen). Preparation of recombinant vaculovirus, infection of the virus to SF-9 cells and purification of recombinant ACC2 protein with 6×His-tag at the N-terminal were performed in the same method as described above.
(§2) Malachite green solution was prepared by mixing 100 mL of solution A (0.12% malachite green in 5NH2SO4), 25 mL of solution B (7.5% ammonium molybdate) and 2 mL of solution C (11% TWEEN-20).
(§3) ACC1 was diluted to 8 μg/mL in reaction buffer (50 mM HEPES pH7.5, 10 mM MgCl2, 10 mM tripotassium citrate, 2 mM DTT, 0.75 mg/mL fatty acid free BSA) and 10 μL diluted enzyme solution was pored into each well of 384-well clear bottom plate. Test compound was diluted in the reaction buffer and 5 μL of the compound solution was added into each well, and the mixture was incubated at 30° C. for 60 minutes. Reaction was initiated by addition of 5 μL substrate solution (50 mM KHCO3, 200 μM ATP, 200 μM acetyl-CoA). After incubation at 30° C. for 20 minutes, reaction was terminated by addition of 5 μL malachite green solution and absorbance at 620 nm was measured.
ACC2 was diluted to 6.4 μg/mL in reaction buffer, and the activity was measured by the same method as described for ACC1.
(§4) Percent activity at each concentration of compound was calculated from the following equation: […]
(§5) Data were subjected to nonlinear regression analysis using GraphPad Prism Software (GraphPad Software Inc.) to obtain IC50 values.

The target in a further experiment is T2, Human ACC1 (Homo sapiens, UniProt Q13085).
T2 construct: made in house; host or cells: SF-9 insect cells (baculovirus, pFAST-BacHTc)
Put plainly: In vitro enzymatic ACC activity assay (malachite green), ACC1. Type of experiment: biochemical. To be noted: recombinant His-tagged enzyme, absorbance at 620 nm. Here is the method:
as §1
Human ACC1 cDNA was amplified from human liver cDNA by polymerase chain reaction using primers; 5′[…]3′ (SEQ ID NO: 1) and 5′[…]3′ (SEQ ID NO: 2). The amplified DNA fragment was digested by restriction enzyme SalI and NotI, and cloned into pFAST-BacHTc (Invitrogen). This plasmid DNA was used for preparation of recombinant vaculovirus with BAC-TO-BAC Baculovirus Expression System (Invitrogen).
SF-9 cells were infected with the vaculovirus and cultured at 27° C. for 3 days. Harvested cells were homogenized in buffer A (25 mM HEPES (pH7.5), 130 mM NaCl, 1 mM EDTA, 25 mM sodium glycerophosphate, 1 mM sodium orthovanadate, 10% glycerol, complete protease inhibitor), and subjected to ultracentrifuge at 185700×g for 50 min at 4° C. ACC1 protein with 6×His-tag at the N-terminal was purified from the supernatant using Ni-NTA Super Flow Gel (QIAGEN). Eluted protein was dialysed against buffer B (50 mM HEPES (pH 7.5), 300 mM NaCl, 10 mM MgCl2, 10 mM tripotassium citrate, 2 mM dithiothreitol) and concentrated using Vivaspin20 ultrafiltration tube (Sartorius).
as §2, §3, §4, §5

T1 sequence (O00763 117-2458 limits assumed): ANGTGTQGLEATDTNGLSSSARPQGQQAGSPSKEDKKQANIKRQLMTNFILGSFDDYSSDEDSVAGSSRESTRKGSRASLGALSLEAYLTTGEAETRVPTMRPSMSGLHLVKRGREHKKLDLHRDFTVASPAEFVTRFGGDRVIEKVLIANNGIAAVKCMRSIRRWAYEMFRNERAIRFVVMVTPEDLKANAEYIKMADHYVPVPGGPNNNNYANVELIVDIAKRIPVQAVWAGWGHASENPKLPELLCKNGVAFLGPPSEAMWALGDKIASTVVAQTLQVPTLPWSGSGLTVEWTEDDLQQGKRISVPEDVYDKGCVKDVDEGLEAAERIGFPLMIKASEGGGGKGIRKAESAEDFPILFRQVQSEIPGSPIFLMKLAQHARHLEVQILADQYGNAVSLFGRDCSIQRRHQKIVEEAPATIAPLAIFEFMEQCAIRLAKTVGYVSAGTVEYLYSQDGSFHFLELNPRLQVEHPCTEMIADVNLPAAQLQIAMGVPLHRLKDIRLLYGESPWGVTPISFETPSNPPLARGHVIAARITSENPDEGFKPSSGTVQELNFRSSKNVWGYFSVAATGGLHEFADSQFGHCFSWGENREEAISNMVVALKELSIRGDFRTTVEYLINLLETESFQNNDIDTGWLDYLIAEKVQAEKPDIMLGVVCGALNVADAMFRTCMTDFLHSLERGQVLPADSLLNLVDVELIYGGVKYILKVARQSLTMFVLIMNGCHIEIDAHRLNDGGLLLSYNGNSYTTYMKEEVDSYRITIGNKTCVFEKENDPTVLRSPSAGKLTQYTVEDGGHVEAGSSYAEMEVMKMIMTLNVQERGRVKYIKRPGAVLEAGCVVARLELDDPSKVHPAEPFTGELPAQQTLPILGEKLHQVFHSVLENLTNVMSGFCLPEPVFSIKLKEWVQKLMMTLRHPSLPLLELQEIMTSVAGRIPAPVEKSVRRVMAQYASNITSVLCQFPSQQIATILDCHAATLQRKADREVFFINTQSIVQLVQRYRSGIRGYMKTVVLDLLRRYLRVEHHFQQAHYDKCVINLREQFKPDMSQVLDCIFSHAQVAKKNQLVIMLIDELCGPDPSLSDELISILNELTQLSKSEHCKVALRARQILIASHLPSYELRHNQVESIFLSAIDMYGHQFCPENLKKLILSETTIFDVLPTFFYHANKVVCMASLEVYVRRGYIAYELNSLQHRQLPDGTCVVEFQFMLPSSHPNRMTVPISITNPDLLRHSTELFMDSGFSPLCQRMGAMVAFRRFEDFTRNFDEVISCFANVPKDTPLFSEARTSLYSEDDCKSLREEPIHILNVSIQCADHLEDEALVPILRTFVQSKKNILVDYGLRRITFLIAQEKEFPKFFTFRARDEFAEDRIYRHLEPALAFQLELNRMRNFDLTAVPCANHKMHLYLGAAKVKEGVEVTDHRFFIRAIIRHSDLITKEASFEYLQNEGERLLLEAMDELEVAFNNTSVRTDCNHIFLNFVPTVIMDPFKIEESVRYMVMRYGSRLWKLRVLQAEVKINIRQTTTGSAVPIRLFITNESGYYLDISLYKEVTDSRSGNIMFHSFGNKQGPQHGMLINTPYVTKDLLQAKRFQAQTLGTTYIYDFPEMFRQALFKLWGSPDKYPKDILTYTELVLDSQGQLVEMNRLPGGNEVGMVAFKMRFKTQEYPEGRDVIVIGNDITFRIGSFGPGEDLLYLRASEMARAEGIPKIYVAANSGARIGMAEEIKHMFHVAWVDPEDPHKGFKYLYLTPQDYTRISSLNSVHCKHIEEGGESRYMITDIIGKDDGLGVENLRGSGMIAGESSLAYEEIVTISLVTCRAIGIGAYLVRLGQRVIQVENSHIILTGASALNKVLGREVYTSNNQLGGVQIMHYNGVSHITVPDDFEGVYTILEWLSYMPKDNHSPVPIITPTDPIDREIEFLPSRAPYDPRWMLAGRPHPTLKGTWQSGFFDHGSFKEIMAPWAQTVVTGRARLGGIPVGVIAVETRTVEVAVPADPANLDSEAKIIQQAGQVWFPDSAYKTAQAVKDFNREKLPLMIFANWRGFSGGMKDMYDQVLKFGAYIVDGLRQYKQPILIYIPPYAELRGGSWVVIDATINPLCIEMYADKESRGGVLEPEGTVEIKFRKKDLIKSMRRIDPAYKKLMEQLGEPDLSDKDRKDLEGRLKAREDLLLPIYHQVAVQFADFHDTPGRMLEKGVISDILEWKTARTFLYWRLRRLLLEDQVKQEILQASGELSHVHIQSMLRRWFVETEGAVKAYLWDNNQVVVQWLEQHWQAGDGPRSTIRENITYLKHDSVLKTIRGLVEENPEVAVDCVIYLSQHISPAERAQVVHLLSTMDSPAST

As for `CCNC(=O)Nc1sc2ccccc2c1C(=O)N1CCN(S(=O)(=O)c2ccccc2C#N)CC1` [Example 2, 1-(3-(4-(2-cyanophenylsulfonyl)piperazine-1-carbonyl)benzo[b]thiophen-2-yl)-3-ethylurea], the IC50 on Human ACC2 and at Human ACC1 was over 50 µM in each case.
As to `CCNC(=O)Nc1sc2ccccc2c1C(=O)N1CCN(S(=O)(=O)c2ccccc2)CC1` [Example 3, ethyl-3-(3-(4-(phenylsulfonyl)piperazine-1-carbonyl)benzo[b]thiophen-2-yl)urea], the IC50 on Human ACC2 and on Human ACC1 was over 50 µM each time.
With `CCNC(=O)Nc1sc2ccccc2c1C(=O)N1CCN(S(=O)(=O)c2ccc3c(c2)OCO3)CC1` [Example 4, 1-(3-(4-(benzo[d][1,3]dioxol-5-ylsulfonyl)piperazine-1-carbonyl)benzo[b]thiophen-2-yl)-3-ethylurea], the IC50 (commonly the concentration that inhibits the measured activity by half) at Human ACC2 is 5 to 50 µM; on Human ACC1, over 50 µM.
In the same order, the values of `CCNC(=O)Nc1sc2ccccc2c1C(=O)N1CCN(S(=O)(=O)c2cccc(S(C)(=O)=O)c2)CC1` [Example 5, ethyl-3-(3-(4-(3-(methylsulfonyl)phenylsulfonyl)piperazine-1-carbonyl)benzo[b]thiophen-2-yl)urea] are 5 to 50 µM and 5 to 50 µM.
Taken in the same sequence, the figures for `CCNC(=O)Nc1sc2ccccc2c1C(=O)N1CCN(S(=O)(=O)c2ccc3nsnc3c2)CC1` [Example 6, 1-(3-(4-(benzo[c][1,2,5]thiadiazol-5-ylsulfonyl)piperazine-1-carbonyl)benzo[b]thiophen-2-yl)-3-ethylurea] were over 50 µM and over 50 µM.
Take `CCNC(=O)Nc1sc2ccccc2c1C(=O)N1CCN(S(=O)(=O)c2cccc(OC)c2)CC1` [Example 7, ethyl-3-(3-(4-(3-methoxyphenylsulfonyl)piperazine-1-carbonyl)benzo[b]thiophen-2-yl)urea]: the results for the IC50 at Human ACC2 and at Human ACC1 were under 5 µM and over 50 µM, respectively.
In the same order, the values of `CCNC(=O)Nc1sc2ccccc2c1C(=O)N1CCN(S(=O)(=O)c2cccc(NC(C)=O)c2)CC1` [Example 8, N-(3-(4-(2-(3-ethylureido)benzo[b]thiophene-3-carbonyl)piperazin-1-ylsulfonyl)phenyl)acetamide] are under 5 µM and 5 to 50 µM.
In the same order, the values of `CCNC(=O)Nc1sc2ccccc2c1C(=O)N1CCN(S(=O)(=O)c2ccc(Cl)c(S(N)(=O)=O)c2)CC1` [Example 9, 2-chloro-5-(4-(2-(3-ethylureido)benzo[b]thiophene-3-carbonyl)piperazin-1-ylsulfonyl)benzenesulfonamide] are under 5 µM and under 5 µM.
Take `CCNC(=O)Nc1sc2ccccc2c1C(=O)N1CCN(S(=O)(=O)c2cccc(-c3csc(C)n3)c2)CC1` [Example 10, ethyl-3-(3-(4-(3-(2-methylthiazol-4-yl)phenylsulfonyl)piperazine-1-carbonyl)benzo[b]thiophen-2-yl)urea]: the IC50 at Human ACC2 was 5 to 50 µM; on Human ACC1 it was over 50 µM.
On to `CCNC(=O)Nc1sc2ccccc2c1C(=O)N1CCN(S(=O)(=O)c2cccc(-c3nnc(C)o3)c2)CC1` [Example 11, ethyl-3-(3-(4-(3-(5-methyl-1,3,4-oxadiazol-2-yl)phenylsulfonyl)piperazine-1-carbonyl)benzo[b]thiophen-2-yl)urea], for which the IC50 at Human ACC2 and on Human ACC1 was 5 to 50 µM in each case.
For `CCNC(=O)Nc1sc2ccccc2c1C(=O)N1CCN(S(=O)(=O)c2cccc(-c3ccnc(C)n3)c2)CC1` [Example 12, ethyl-3-(3-(4-(3-(2-methylpyrimidin-4-yl)phenylsulfonyl)piperazine-1-carbonyl)benzo[b]thiophen-2-yl)urea], the results for the IC50 on Human ACC2 and on Human ACC1 were under 5 µM and 5 to 50 µM, respectively.
In the same order, the values of `CCNC(=O)Nc1sc2ccccc2c1C(=O)N1CCN(S(=O)(=O)c2cccc(-c3noc(C)n3)c2)CC1` [Example 13, ethyl-3-(3-(4-(3-(5-methyl-1,2,4-oxadiazol-3-yl)phenylsulfonyl)piperazine-1-carbonyl)benzo[b]thiophen-2-yl)urea] are under 5 µM and under 5 µM.
Taken in the same sequence, the figures for `CCNC(=O)Nc1sc2ccccc2c1C(=O)N1CCN(S(=O)(=O)c2ccc(N3CCOCC3)nc2)CC1` [Example 14, ethyl-3-(3-(4-(6-morpholinopyridin-3-ylsulfonyl)piperazine-1-carbonyl)benzo[b]thiophen-2-yl)urea] were under 5 µM and under 5 µM.
In the same order, the values of `CCNC(=O)Nc1sc2ccccc2c1C(=O)N1CCN(S(=O)(=O)c2cccc(OC(F)(F)F)c2)CC1` [Example 15, ethyl-3-(3-(4-(3-(trifluoromethoxy)phenylsulfonyl)piperazine-1-carbonyl)benzo[f]thiophen-2-yl)urea] are over 50 µM and over 50 µM.
As to `CCNC(=O)Nc1sc2ccccc2c1C(=O)N1CCN(S(=O)(=O)c2cccc([N+](=O)[O-])c2)CC1` [Example 16, ethyl-3-(3-(4-(3-nitrophenylsulfonyl)piperazine-1-carbonyl)benzo[b]thiophen-2-yl)urea], the IC50 on Human ACC2 and at Human ACC1 was over 50 µM throughout.
`CCNC(=O)Nc1sc2ccccc2c1C(=O)N1CCN(S(=O)(=O)C2CCS(=O)(=O)C2)CC1` (stereo not drawn) [Example 17, ethyl-3-(3-(4-(1,1-dioxotetrahydrothiophen-3-ylsulfonyl)piperazine-1-carbonyl)benzo[b]thiophen-2-yl)urea]: the IC50 at Human ACC2 and at Human ACC1 was 5 to 50 µM in each case.
For the compound `CCNC(=O)Nc1sc2ccccc2c1C(=O)N1CCN(S(=O)(=O)c2ccc3c(c2)OCCCO3)CC1` [Example 18, 1-(3-(4-(3,4-dihydro-2H-benzo[b][1,4]dioxepin-7-ylsulfonyl)piperazine-1-carbonyl)benzo[b]thiophen-2-yl)-3-ethylurea], the IC50 on Human ACC2 and on Human ACC1 was under 5 µM throughout.
As for `CCNC(=O)Nc1sc2ccccc2c1C(=O)N1CCN(S(=O)(=O)c2ccc(OC)c(NC(C)=O)c2)CC1` [Example 19, N-(5-(4-(2-(3-ethylureido)benzo[b]thiophene-3-carbonyl)piperazin-1-ylsulfonyl)-2-methoxyphenyl)acetamide], the IC50 on Human ACC2 and on Human ACC1 was under 5 µM in each case.
Consider `CCNC(=O)Nc1sc2ccccc2c1C(=O)N1CCN(S(=O)(=O)c2cccc(C(C)=O)c2)CC1` [Example 20, 1-(3-(4-(3-acetylphenylsulfonyl)piperazine-1-carbonyl)benzo[b]thiophen-2-yl)-3-ethylurea], for which the IC50 at Human ACC2 and on Human ACC1 was under 5 µM each time.
For the compound `CCNC(=O)Nc1sc2ccccc2c1C(=O)N1CCN(S(=O)(=O)c2ccc3ncsc3c2)CC1` [Example 21, 1-(3-(4-(benzo[d]thiazol-6-ylsulfonyl)piperazine-1-carbonyl)benzo[b]thiophen-2-yl)-3-ethylurea], the half-maximal inhibitory concentration (IC50) on Human ACC2 and at Human ACC1 was under 5 µM throughout.
For `CCNC(=O)Nc1sc2ccccc2c1C(=O)N1CCN(S(=O)(=O)c2ccc(N3CCCC3=O)cc2)CC1` [Example 22, ethyl-3-(3-(4-(4-(2-oxopyrrolidin-1-yl)phenylsulfonyl)piperazine-1-carbonyl)benzo[b]thiophen-2-yl)urea], the IC50 was under 5 µM on Human ACC2 and over 50 µM on Human ACC1.
